The values that follow come from paper PMC6364417, “Kinase inhibitor library screening identifies synergistic drug combinations effective in sensitive and resistant melanoma cells” (Journal of Experimental & Clinical Cancer Research : CR, 2019).

Structures are written as SMILES.

One test has as its system melanoma cell lines. The following applies: several other melanoma cell lines; cited from earlier work.
The subject of test [1] is A375-XP cells (Vemurafenib-resistant). In words: Dose-response curves and IC50, PrestoBlue cell viability, 72 h. The test is classed as cell-based, human. The following applies: Homo sapiens, n.e. = did not suppress growth below 50% in the tested concentration range, read-out: Half-maximal inhibitory concentration value (IC50), Mean.
Test [2] deals with A375-GP cells (Dabrafenib-resistant). The test is described as above. The note with it: Homo sapiens, n.e. = did not suppress growth below 50% in the tested concentration range, read-out: Half-maximal inhibitory concentration value (IC50), Mean. In kind it is cell-based, human.
Test [3] has as its system NHEM (normal human epidermal melanocytes). In words: Dose-response curves and IC50 in non-cancer cells, cell viability, 72 h. The note with it: Homo sapiens, Melanocyte, read-out: Half-maximal inhibitory concentration (IC50), NHEM Mean. Here is the method: (§1) The IC50 values (nM) were calculated as indicated in Methods.
Test [4] has as its system NHDF (normal human dermal fibroblasts). Described as above. The following applies: Homo sapiens, NHDF, read-out: Half-maximal inhibitory concentration (IC50), NHDF Mean. Here is the method: as §1
Test [5] relates to A375 parental cells expressing iRFP. In words: Long-term inhibitor treatment, iRFP fluorescence proliferation monitoring. The test is classed as cell-based, human. On the procedure:
A375 parental and BRAFi-resistant cells, virally transduced with the near-infrared fluorescent protein (iRFP) were seeded at a density of 2500 cells/well in a 24-well plate (Greiner) in at least technical triplicates. Inhibitors, single or in combination, were added at the indicated amounts and replenished every 72 h for a duration of 76 days. To assess whether any remaining cells have become resistant to the treatment and would re-emerge, the drugs were removed and the cells underwent “drug holidays” for an additional 21 days. During the long-term treatment, cell proliferation was monitored bi-weekly on a LI-COR Odyssey Infrared Imaging System (LI-COR Biosciences). Fluorescence intensity was quantified with the Image Studio™ Lite software (LI-COR Biosciences).

For a further test, the system named is A375 cells (parental). In words: Dose-response curves and IC50, PrestoBlue cell viability, 72 h. In kind it is cell-based, human. The note with it: Homo sapiens, A-375, n.e. = did not suppress growth below 50% in the tested concentration range, read-out: Half-maximal inhibitory concentration value (IC50), Mean.
Another test concerns A375 cells. In words: Synergy determination with the Chou-Talalay method (CompuSyn), cell viability 72 h. The following applies: 72 h cell viability, Chou-Talalay / Synergyfinder. In kind it is cell-based, human.
The next test has as its system melanoma tumors. The note with it: cited from earlier work.

Take `CO[C@@H](C(=O)N1Cc2n[nH]c(NC(=O)c3ccc(N4CCN(C)CC4)cc3)c2C1)c1ccccc1` [Danusertib]: in the test on melanoma cell lines, the “apoptosis and migration of melanoma cell lines (in words)” value was “induced apoptosis and inhibited migration”. Further, the IC50 worked out at 295 nM in test [1]; 257 nM in test [2]; 370 nM in test [3]; 1170 nM in [4]; 328 nM with A375 cells (parental). Further, the “long-term cell growth under drug until day 76 (in words)” value in test [5] (drugs replenished every 72 h, indicated concentrations) is “inconsistent”. Moreover, the “synergistic effects with the BRAF inhibitors Vemurafenib and/or Dabrafenib (in words)” value with A375 cells was “clear synergistic effects”.
Regarding `CC[C@@H]1C(=O)N(C)c2cnc(Nc3ccc(C(=O)N[C@H]4CC[C@H](N5CCN(CC6CC6)CC5)CC4)cc3OC)nc2N1C(C)C` [Volasertib], the IC50 in [1] was found to be 21 nM; in test [2], 15 nM; in test [4], 75 nM; with A375 cells (parental) it was 21 nM. For the same compound, in test [5], the “regrowth after removal of drugs (after day 76, by day 97) (in words)” value is on record as “had started to grow back”. Further, in [5] (40 nM (also 20 nM, data not shown)), the “long-term cell growth under drug until day 76 (in words)” value is recorded as “killed all cells”. Besides, in the test with melanoma tumors, the “effect on melanoma tumors in vivo (in words)” value was “delay growth of melanoma tumors and to cause regression by inducing apoptosis in vivo”. Further, in the test with A375 cells, the “synergistic effects with the BRAF inhibitors Vemurafenib and/or Dabrafenib (in words)” value is “synergistic effects only with Dabrafenib”.
